From ChEMBL document CHEMBL1145766, “2-(Anilinomethyl)imidazolines as alpha1 adrenergic receptor agonists: alpha1a subtype selective 2'-heteroaryl compounds” (Bioorg Med Chem Lett, 2003)
pEC50, pIC50: −log10 of the molar value.

Key:
[1] = target: T1, Alpha-1B adrenergic receptor (Homo sapiens, UniProt P35368); assay: Agonism of human alpha-1B adrenergic receptor, expressed in rat 1 fibroblast cells; format: functional, cell-based
T1 sequence (P35368 whole entry): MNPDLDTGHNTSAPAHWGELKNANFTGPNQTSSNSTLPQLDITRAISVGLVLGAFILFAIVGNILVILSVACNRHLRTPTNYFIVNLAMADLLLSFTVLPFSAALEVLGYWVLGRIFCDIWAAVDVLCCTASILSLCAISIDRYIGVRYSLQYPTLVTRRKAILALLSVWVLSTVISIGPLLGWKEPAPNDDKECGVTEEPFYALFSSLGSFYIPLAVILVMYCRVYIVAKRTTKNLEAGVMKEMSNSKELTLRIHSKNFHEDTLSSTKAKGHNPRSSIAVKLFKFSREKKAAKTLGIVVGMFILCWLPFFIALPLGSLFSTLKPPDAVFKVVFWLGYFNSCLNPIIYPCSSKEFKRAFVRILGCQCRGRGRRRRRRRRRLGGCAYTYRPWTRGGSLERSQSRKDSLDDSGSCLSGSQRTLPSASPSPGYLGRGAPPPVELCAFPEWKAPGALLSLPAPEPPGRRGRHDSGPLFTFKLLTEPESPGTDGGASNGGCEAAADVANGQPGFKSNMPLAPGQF

[2] = target: T2, Alpha-1B adrenergic receptor (Homo sapiens) (UniProt P35368); assay: Maximal response assayed via calcium mobilization to human alpha-1B adrenergic receptor compared to percent of the […] phenylephrine response.; format: functional
T2 sequence (whole entry): T1 sequence (P35368 whole entry)

[3] = target: T3, Alpha-1D adrenergic receptor (Homo sapiens, UniProt P25100); assay: Agonism of recombinant human alpha-1D adrenergic receptor, expressed in rat 1 fibroblast cells; format: functional, cell-based
T3 sequence (P25100 whole entry): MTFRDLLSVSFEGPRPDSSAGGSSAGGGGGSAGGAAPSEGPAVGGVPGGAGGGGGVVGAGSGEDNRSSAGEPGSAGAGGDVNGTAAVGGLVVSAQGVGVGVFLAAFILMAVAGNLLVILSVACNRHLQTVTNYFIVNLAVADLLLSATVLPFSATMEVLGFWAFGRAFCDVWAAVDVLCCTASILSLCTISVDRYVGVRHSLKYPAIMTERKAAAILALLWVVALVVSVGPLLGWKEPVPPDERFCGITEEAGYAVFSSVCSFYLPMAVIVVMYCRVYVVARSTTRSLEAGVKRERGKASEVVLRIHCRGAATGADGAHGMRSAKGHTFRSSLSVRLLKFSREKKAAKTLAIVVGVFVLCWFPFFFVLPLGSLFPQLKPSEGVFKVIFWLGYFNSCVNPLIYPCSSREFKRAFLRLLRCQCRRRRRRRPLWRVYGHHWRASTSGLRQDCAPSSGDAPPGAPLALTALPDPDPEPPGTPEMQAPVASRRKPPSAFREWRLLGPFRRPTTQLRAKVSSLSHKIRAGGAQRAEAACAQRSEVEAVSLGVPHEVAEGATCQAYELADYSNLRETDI

[4] = target: T4, Alpha-1A adrenergic receptor (Homo sapiens) (UniProt P35348); assay: Maximal response assayed via calcium mobilization to the human alpha-1A adrenergic receptor compared the percent of the […] phenylephrine response; format: functional
T4 sequence (whole entry): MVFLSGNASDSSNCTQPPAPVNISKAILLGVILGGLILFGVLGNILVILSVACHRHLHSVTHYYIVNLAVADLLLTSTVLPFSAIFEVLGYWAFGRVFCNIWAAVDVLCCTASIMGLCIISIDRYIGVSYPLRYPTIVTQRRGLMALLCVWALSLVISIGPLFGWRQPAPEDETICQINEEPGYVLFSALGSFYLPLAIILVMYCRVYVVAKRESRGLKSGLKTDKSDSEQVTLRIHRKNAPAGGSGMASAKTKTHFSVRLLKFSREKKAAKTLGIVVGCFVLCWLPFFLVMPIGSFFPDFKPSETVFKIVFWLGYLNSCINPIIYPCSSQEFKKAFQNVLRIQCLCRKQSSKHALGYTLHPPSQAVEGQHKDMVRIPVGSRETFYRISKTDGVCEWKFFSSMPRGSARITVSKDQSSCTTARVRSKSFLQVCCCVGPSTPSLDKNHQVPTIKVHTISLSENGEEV

[5] = target: T5, Alpha-1D adrenergic receptor (Homo sapiens) (UniProt P25100); assay: Maximal response via calcium mobilization towards Human Alpha-1D adrenergic receptor as percent relative to […] phenylephrine; format: functional
T5 sequence (whole entry): T3 sequence (P25100 whole entry)

[6] = target: T6, Alpha-1A adrenergic receptor (Homo sapiens, UniProt P35348); assay: Agonism of human alpha-1A adrenergic receptor expressed in rat 1 fibroblast cells; format: functional, cell-based
T6 sequence (P35348 whole entry): T4 sequence (whole entry)

[7] = target: T5, Alpha-1D adrenergic receptor (Homo sapiens); assay: Maximal response via calcium mobilization towards Human Alpha-1D adrenergic receptor as percent rtelative to […] phenylephrine; format: functional
[8] = target: T6, Alpha-1A adrenergic receptor; assay: Inhibitory concentration against radioligand binding to human Alpha-1A adrenergic receptor, expressed in rat 1 fibroblast cells; format: cell-based
[9] = target: T3, Alpha-1D adrenergic receptor; assay: Inhibitory concentration against radioligand binding to human aAlpha-1D adrenergic receptor, expressed in rat 1 fibroblast cells; format: cell-based
[10] = target: T1, Alpha-1B adrenergic receptor; assay: Inhibitory concentration against radioligand binding to human Alpha-1B adrenergic receptor, expressed in rat 1 fibroblast cells; format: cell-based
[11] = target: T3, Alpha-1D adrenergic receptor; assay: Inhibitory concentration against radioligand binding to human Alpha-1D adrenergic receptor, expressed in rat 1 fibroblast cells; format: cell-based

| SMILES | pEC50 [1] | Max response [2] [%] | pEC50 [3] | Max response [4] [%] | Max response [5] [%] | pEC50 [6] | Max response [7] [%] | pIC50 [8] | pIC50 [9] | pIC50 [10] | pIC50 [11] |
| --- | --- | --- | --- | --- | --- | --- | --- | --- | --- | --- | --- |
| CCn1ncnc1-c1ccccc1NCC1=NCCN1 | 7.20 | 94 | 6.90 | 107 | – | 8.90 | 55 | – | – | – | – |
| c1ccc(-c2nc[nH]n2)c(NCC2=NCCN2)c1 | 8.30 | 100 | 8.40 | 135 | – | 9.10 | 123 | – | – | – | – |
| Cc1n[nH]c(-c2ccccc2NCC2=NCCN2)n1 | < 5.30 | 0 | < 5.30 | 87 | – | 6.10 | 0 | – | – | – | – |
| CCCCn1ncnc1-c1ccccc1NCC1=NCCN1 | 6.70 | 83 | 6.40 | 86 | – | 6.70 | 66 | – | – | – | – |
| Cc1nc(-c2ccccc2NCC2=NCCN2)n(C)n1 | < 5.30 | 0 | < 5.30 | 98 | – | 6.00 | 0 | – | – | – | – |
| CC(C)n1ncnc1-c1ccccc1NCC1=NCCN1 | < 4.00 | 0 | 5.50 | 104 | – | 8.20 | 37 | – | – | – | – |
| c1ccc(-c2cc[nH]n2)c(NCC2=NCCN2)c1 | 8.30 | 95 | 7.70 | 104 | – | 9.00 | 54 | 7.60 | 7.40 | 6.80 | – |
| FC(F)(F)Cn1ncnc1-c1ccccc1NCC1=NCCN1 | < 4.00 | 0 | < 4.00 | 91 | – | 7.10 | 0 | – | – | – | – |
| CCn1cc(-c2ccccc2NCC2=NCCN2)cn1 | < 4.00 | 0 | < 4.00 | 0 | 0 | < 4.00 | – | – | – | – | – |
| CCn1cccc1-c1ccccc1NCC1=NCCN1 | < 4.00 | 0 | < 4.00 | 93 | 0 | 8.60 | – | – | – | – | – |
| CCn1ccc(-c2ccccc2NCC2=NCCN2)n1 | < 4.00 | 0 | < 4.00 | 78 | 0 | 7.60 | – | – | – | – | – |
| c1ccc(-c2cn[nH]c2)c(NCC2=NCCN2)c1 | 7.10 | 72 | 7.70 | 112 | 62 | 8.90 | – | – | – | – | – |
| CCCn1ncnc1-c1ccccc1NCC1=NCCN1 | 6.50 | 74 | 6.60 | 96 | – | 7.90 | 57 | – | – | – | – |

More lines, now with the values ahead:

| pEC50 [1] | Max response [2] [%] | pEC50 [3] | Max response [4] [%] | Max response [5] [%] | pEC50 [6] | Max response [7] [%] | pIC50 [8] | pIC50 [9] | pIC50 [10] | pIC50 [11] | SMILES |
| --- | --- | --- | --- | --- | --- | --- | --- | --- | --- | --- | --- |
| < 4.00 | 0 | < 4.00 | 76 | 0 | 6.50 | – | – | – | – | – | FC(F)(F)Cn1nccc1-c1ccccc1NCC1=NCCN1 |
| < 4.00 | 0 | < 4.00 | 39 | 0 | 6.40 | – | – | – | – | – | Cn1cc(-c2ccccc2NCC2=NCCN2)cn1 |
| < 4.00 | 0 | < 4.00 | 78 | 0 | 7.30 | – | – | – | – | – | Cc1ccc(-c2ccccc2NCC2=NCCN2)n1C |
| 7.30 | 33 | 7.80 | 116 | 29 | 8.50 | – | – | – | – | – | Cn1ccc(-c2ccccc2NCC2=NCCN2)n1 |
| < 4.00 | 0 | < 4.00 | 59 | 0 | 6.60 | – | – | – | – | – | CCCn1nccc1-c1ccccc1NCC1=NCCN1 |
| < 4.00 | 0 | 6.60 | 103 | 32 | 7.70 | – | – | – | – | – | Cn1cccc1-c1ccccc1NCC1=NCCN1 |
| 7.40 | 93 | 7.20 | 91 | – | 8.70 | 116 | – | – | – | – | Cn1ncnc1-c1ccccc1NCC1=NCCN1 |
| < 4.00 | 0 | < 4.00 | 108 | 0 | 8.00 | – | 6.70 | – | 6.40 | 6.30 | Cn1nccc1-c1ccccc1NCC1=NCCN1 |
| 7.40 | 104 | 6.70 | 88 | 92 | 8.20 | – | – | – | – | – | Cn1ccnc1-c1ccccc1NCC1=NCCN1 |
| < 4.00 | 0 | < 4.00 | 0 | 0 | < 4.00 | – | – | – | – | – | CC(C)n1nccc1-c1ccccc1NCC1=NCCN1 |
| < 4.00 | 0 | < 4.00 | 81 | 0 | 7.20 | – | – | – | – | – | CCn1nccc1-c1ccccc1NCC1=NCCN1 |
